# Laboratory results taken from paper PMC10787067, “EBF2 Links KMT2D‐Mediated H3K4me1 to Suppress Pancreatic Cancer Progression via Upregulating KLLN” (Advanced Science, 2023).
# What was measured:
# SW1990 cells [1] = test: RNA-seq of GSK-LSD1-treated SW1990 cells; type: cell-based, Human; details: fold change > 1.5, p < 0.05, Figure 4A
# Text: Total RNA was isolated from cells using RNAiso plus (Takara). The quantity and integrity of RNA were separately evaluated using the K5500 (Beijing Kaiao, China) and the Agilent 2200 TapeStation (Agilent Technologies, USA). Briefly, the mRNA was enriched by OligodT NEBNext Poly(A) mRNA Magnetic Isolation Module (NEB, USA), and then fragmented into ≈200 bp. Subsequently, the RNA fragments were subjected to first and second strand cDNA synthesis, followed by adaptor ligation and enrichment according to instructions of NEBNext Ultra RNA Library Prep Kit for Illumina. The purified library products were evaluated by the Agilent 2200 TapeStation and Qubit (Thermo Fisher Scientific, USA). The libraries were sequenced by Illumina (Illumina, USA) with paired‐end 150 bp (Ribobio, China). The clean reads were acquired after discarding low‐quality reads or those containing adapter and ploy‐N. HISAT2 was employed to calibrate clean reads to human reference genome hg38 with default parameters. HTSeq was used to convert aligned short reads into read counts for each gene model. Differential gene expression was assessed by DESeq2 using read counts as input.^[ [62] ^] The Benjamini–Hochberg multiple test correction method was employed. […] RNA‐seq data sets were available (GEO accession number GSE237363).
# KLLN [2] = test: qPCR of KLLN mRNA in SW1990 cells; type: cell-based, Human; details: vs negative control, p < 0.01, Student's t-test, concentration not given, Figure 4E
# Protocol: Total RNA was extracted from cultured cells using RNAiso plus (Takara, Japan). cDNA was synthesized from every 1 µg of total RNA in reverse transcription reactions with Hifair III 1st Strand cDNA Synthesis SuperMix for qPCR (Cat No. 11 141; Yeasen, Shanghai, China). qPCR was performed with Hieff qPCR SYBR Green Master Mix (Yeasen) using a Roche LightCycler 96 Real‐Time PCR System. Cycling conditions were set at 94 °C for 15 s, 60 °C for 1 min, and 72 °C for 30 s. Each reaction was performed in triplicate. The primer sequences were as follows: KMT2D‐F: 5′‐[…]‐3′; KMT2D‐R: 5′‐[…]‐3′; EBF2‐F: 5′‐[…]‐3′; EBF2‐R: 5′‐[…]‐3′; KLLN‐F: 5′‐[…]‐3’; KLLN‐R: 5′‐[…]‐3′. β‐actin‐F: 5′‐[…]‐3′; β‐actin‐R: 5′‐[…]‐3′.
# KLLN [3] = test: Western blot of KLLN in SW1990 cells; type: cell-based, Human
# Protocol: SW1990 and PANC‐1 cells were isolated using lysate buffer containing protease inhibitors. Samples containing equal amounts of protein were separated by SDS‐PAGE. After electrophoresis, the proteins were transferred to a PVDF membrane (Millipore, Billerica, MA, USA) and blocked with 5% skim milk for 2 h at room temperature. An overnight incubation of membranes was made at 4 °C with primary antibodies against KMT2D (1:1000; Affinity, China), EBF2 (1:1000; Affinity), and KLLN (1:1000; Abcam, USA). After washing with 1× TBST for three times, a 2 h incubation of membranes was implemented with horseradish peroxidase (HRP)‐gemeled Affinipure Goat Anti‐Rabbit IgG (H + L) (1:10000; ProteinTech, China) or Peroxidase‐gemeled Affinipure Goat Anti‐Mouse IgG (H+L) (1:10000; ProteinTech) at room temperature. Proteins were visualized by chemiluminescence using an ECL kit (Thermo Fisher).
# H3K4me1 [4] = test: Western blot of H3K4me1 in PANC-1 cells; type: cell-based, Human; details: 0, 1, 10 or 100 μM GSK-LSD1, Figure S4D
# PANC‐1 cells [5] = test: Colony-formation and CCK-8 proliferation, PANC-1; type: cell-based, Human; details: vs Vehicle, p < 0.01, Figure S4E,F
# Protocol: (§1) Cell proliferation was determined by Cell Counting Kit‐8 (CCK‐8, Yeasen) and EdU Cell Proliferation Assay kit (Ribobio, Guangzhou, China). Colony formation was observed by staining with 0.1% crystal violet (Sangon Biotechnologies Inc., Shanghai, China). Cell migration and invasion were assessed using […] pore Transwell chambers with (for invasion assay) or without Matrigel (for migration assay). For migration assay, 5 × 10^4 SW1990 or 3 × 10^4 PANC‐1 cells were seeded into the upper chamber of the Transwell apparatus (Corning, USA) in serum‐free medium, and the medium supplemented with 10% FBS was added to the bottom chamber. For invasion assay, 10 × 10^4 SW1990 or 6 × 10^4 PANC‐1 cells were seeded into the upper Corning BioCoat Matrigel invasion chamber. After 24 h, the cells on the upper surface that had not passed through the polycarbonate filter were removed using a moistened cotton swab; the cells having migrated to the lower membrane surface were fixed in 100% methanol for 10 min, stained with 0.4% crystal violet for 15 min, and counted under a microscope (Nikon, Japan) at ×100 magnification. The cells were manually counted using Image J software. Three independent experiments were performed.
# SW1990 cells [6] = test: Transwell migration and invasion, SW1990; type: cell-based, Human; details: 24 h, vs Vehicle, p < 0.01, Figure 5H
# Protocol: as §1
# H3K4me1 [7] = test: Western blot and IHC of metastatic foci from treated mice, H3K4me1; type: in vivo, Human (xenograft in BALB/c nude mice); details: control vs GSK-LSD1-treated lung metastasis tissues, Figure 5L,M
# EBF2 = test: Co-IP with H3K4me1 antibodies from GSK-LSD1-treated SW1990 cell lysates; type: cell-based, Human; details: vs vehicle, Figure 5P
# Protocol: Co‐immunoprecipitation assay was performed as described previously.^[ [61] ^] Briefly, SW1990 cells were transfected with indicated constructs or treated with GSK‐LSD1, washed with cold phosphate buffered saline (PBS), and lysed with cold cell lysis buffer. Then, the lysates were incubated with appropriate specific antibodies or normal rabbit IgG at 4 °C overnight in constant rotation, followed by the addition of protein A/G Sepharose beads and incubation for 2 h at 4 °C. The beads were then washed five times by the lysis buffer. Bead‐bound proteins were resolved by SDS‐PAGE and detected by immunoblotting using indicated antibodies.
# SW1990 cells [8] = test: KLLN rescue experiments (CCK-8, colony-formation, Transwell), SW1990; type: cell-based, Human; details: p < 0.01, Figure 5Q-S
# Protocol: as §1
# PANC‐1 cells [9] = test: KLLN rescue experiments (CCK-8, colony-formation, Transwell), PANC-1; type: cell-based, Human; details: p < 0.01, Figure S4H-J
# Protocol: as §1
compound,measurement,setting,value
c1ccc([C@@H]2C[C@H]2NC2CCNCC2)cc1 [GSK‐LSD1],upregulated genes overlapping between EBF2-OE and GSK-LSD1-treated cells,SW1990 cells [1],17
same,KLLN mRNA level,KLLN [2],significant upregulation
same,"KLLN level, concentration dependence","KLLN [3]; 0, 1, 10, or 100 µM GSK-LSD1, Figure 5E",increased the levels of H3K4me1 and KLLN in a concentration‐dependent manner
same,KLLN protein level,"KLLN [3]; Western blot, concentration not given, Figure 4F",significant upregulation
same,"H3K4me1 level, concentration dependence",H3K4me1 [4],increased the levels of H3K4me1 and KLLN in a concentration‐dependent manner
same,proliferation,PANC‐1 cells [5],significantly inhibited
same,invasion,SW1990 cells [6]; Transwell with Matrigel,significantly inhibited
same,migration,SW1990 cells [6]; Transwell without Matrigel,significantly inhibited
same,H3K4me1 in metastatic foci,H3K4me1 [7],upregulation
same,EBF2 co-immunoprecipitated with H3K4me1,EBF2; H3K4me1 antibodies,co‐immunoprecipitated more EBF2
same,EBF2 expression,EBF2; concentration not given,without affect EBF2 expression
same,tumor-suppressive phenotype of GSK-LSD1 on knockdown of KLLN,SW1990 cells [8],markedly attenuated
same,tumor-suppressive phenotype of GSK-LSD1 on knockdown of KLLN,PANC‐1 cells [9],markedly attenuated
